Results: PubChem BioAssay AID2060897 (Molecular Pharmacology Branch, DTP, NCI, 2025)
Values joined by “and” are separate entries in the source; they are usually repeats but may differ in a detail not shown here. Identical values can stand only once.

System: 966289-007-R4-J1-PDC complex spheroid viability
Test: Anticancer human tumor 966289-007-R4-J1-PDC patient-derived pancreatic adenocarcinoma cell line growth inhibition [RAS]
Conditions: for viability, T/C: stronger effect = lower value
In short: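 Tumour cells grown as complex spheroids with HUVEC endothelial cells and mesenchymal stem cells, treated with RAS pathway inhibitor combinations. Each agent spans half-log steps from near clinical Cmax, or 10 microM where Cmax is unknown.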

[1] = curve of first compound, second compound 0.0316 µM
[2] = curve of first compound, second compound 0.1 µM
[3] = curve of first compound, second compound 0.316 µM
[4] = curve of first compound, second compound 1 µM
[5] = curve of first compound, second compound 3.16 µM
[6] = curve of first compound, second compound 10 µM
[7] = second compound 0.0316 µM, first compound 0.0316 µM
[8] = second compound 0.0316 µM, first compound 0.1 µM
[9] = second compound 0.0316 µM, first compound 0.316 µM
[10] = second compound 0.0316 µM, first compound 1 µM
[11] = second compound 0.0316 µM, first compound 3.16 µM
[12] = second compound 0.0316 µM, first compound 10 µM
[13] = second compound 0.1 µM, first compound 0.0316 µM
[14] = second compound 0.1 µM, first compound 0.1 µM
[15] = second compound 0.1 µM, first compound 0.316 µM
[16] = second compound 0.1 µM, first compound 1 µM
[17] = second compound 0.1 µM, first compound 3.16 µM
[18] = second compound 0.1 µM, first compound 10 µM
[19] = second compound 0.316 µM, first compound 0.0316 µM
[20] = second compound 0.316 µM, first compound 0.1 µM
[21] = second compound 0.316 µM, first compound 0.316 µM
[22] = second compound 0.316 µM, first compound 1 µM
[23] = second compound 0.316 µM, first compound 3.16 µM
[24] = second compound 0.316 µM, first compound 10 µM
[25] = second compound 1 µM, first compound 0.0316 µM
[26] = second compound 1 µM, first compound 0.1 µM
[27] = second compound 1 µM, first compound 0.316 µM
[28] = second compound 1 µM, first compound 1 µM
[29] = second compound 1 µM, first compound 3.16 µM
[30] = second compound 1 µM, first compound 10 µM
[31] = second compound 3.16 µM, first compound 0.0316 µM
[32] = second compound 3.16 µM, first compound 0.1 µM
[33] = second compound 3.16 µM, first compound 0.316 µM
[34] = second compound 3.16 µM, first compound 1 µM
[35] = second compound 3.16 µM, first compound 3.16 µM
[36] = second compound 3.16 µM, first compound 10 µM
[37] = second compound 10 µM, first compound 0.0316 µM
[38] = second compound 10 µM, first compound 0.1 µM
[39] = second compound 10 µM, first compound 0.316 µM
[40] = second compound 10 µM, first compound 1 µM
[41] = second compound 10 µM, first compound 3.16 µM
[42] = second compound 10 µM, first compound 10 µM
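Note: spheroids exposed to agents for one week before readout.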
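Throughout, for viability, T/C: percent viability relative to DMSO vehicle control wells as 100%.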

CC1(C)CCC(Nc2ncc(C(F)(F)F)c(-c3c[nH]c4c(P(C)(C)=O)c(C#N)ccc34)n2)CN1 (configuration not stated) + C#Cc1c(F)ccc2cc(O)cc(-c3ncc4c(N5CC6CCC(C5)N6)nc(OCC56CCCN5CC(F)C6)nc4c3F)c12
IC50 [1]: 0.017 µM | IC50 [2]: 0.0156 µM | IC50 [3]: 0.0183 µM | IC50 [4]: 0.0196 µM | IC50 [5]: 0.0191 µM | IC50 [6]: 0.0186 µM | viability, T/C (second compound 0.0316 µM, first compound 0.000949 µM): 113% | viability, T/C (second compound 0.0316 µM, first compound 0.003 µM): 107% | viability, T/C (second compound 0.0316 µM, first compound 0.00949 µM): 80.6% | viability, T/C (second compound 0.0316 µM, first compound 0.03 µM): 19.9% | viability, T/C (second compound 0.0316 µM, first compound 0.0949 µM): 15.4% | viability, T/C (second compound 0.0316 µM, first compound 0.3 µM): 11.9% | viability, T/C (second compound 0.1 µM, first compound 0.000949 µM): 107% | viability, T/C (second compound 0.1 µM, first compound 0.003 µM): 131% | viability, T/C (second compound 0.1 µM, first compound 0.00949 µM): 76.4% | viability, T/C (second compound 0.1 µM, first compound 0.03 µM): 20.8% | viability, T/C (second compound 0.1 µM, first compound 0.0949 µM): 13.4% | viability, T/C (second compound 0.1 µM, first compound 0.3 µM): 11.3% | viability, T/C (second compound 0.316 µM, first compound 0.000949 µM): 102% | viability, T/C (second compound 0.316 µM, first compound 0.003 µM): 134% | viability, T/C (second compound 0.316 µM, first compound 0.00949 µM): 90.3% | viability, T/C (second compound 0.316 µM, first compound 0.03 µM): 20.8% | viability, T/C (second compound 0.316 µM, first compound 0.0949 µM): 13.9% | viability, T/C (second compound 0.316 µM, first compound 0.3 µM): 12.9% | viability, T/C (second compound 1 µM, first compound 0.000949 µM): 106% | viability, T/C (second compound 1 µM, first compound 0.003 µM): 131% | viability, T/C (second compound 1 µM, first compound 0.00949 µM): 89.3% | viability, T/C (second compound 1 µM, first compound 0.03 µM): 27.3% | viability, T/C (second compound 1 µM, first compound 0.0949 µM): 13.8% | viability, T/C (second compound 1 µM, first compound 0.3 µM): 10.3% | viability, T/C (second compound 3.16 µM, first compound 0.000949 µM): 115% | viability, T/C (second compound 3.16 µM, first compound 0.003 µM): 135% | viability, T/C (second compound 3.16 µM, first compound 0.00949 µM): 91.7% | viability, T/C (second compound 3.16 µM, first compound 0.03 µM): 24.1% | viability, T/C (second compound 3.16 µM, first compound 0.0949 µM): 12.2% | viability, T/C (second compound 3.16 µM, first compound 0.3 µM): 12.1% | viability, T/C (second compound 10 µM, first compound 0.000949 µM): 101% | viability, T/C (second compound 10 µM, first compound 0.003 µM): 113% | viability, T/C (second compound 10 µM, first compound 0.00949 µM): 89.8% | viability, T/C (second compound 10 µM, first compound 0.03 µM): 21.9% | viability, T/C (second compound 10 µM, first compound 0.0949 µM): 15.1% | viability, T/C (second compound 10 µM, first compound 0.3 µM): 9.97%

Cc1nc(N2CCC3(CC2)COC(C)C3N)c(CO)nc1Sc1ccnc(N)c1Cl (configuration not stated) + C#Cc1c(F)ccc2cc(O)cc(-c3ncc4c(N5CC6CCC(C5)N6)nc(OCC56CCCN5CC(F)C6)nc4c3F)c12
IC50 [1]: > 10 µM | IC50 [2]: > 10 µM | IC50 [3]: > 10 µM | IC50 [4]: > 10 µM | IC50 [5]: > 10 µM | IC50 [6]: > 10 µM | viability, T/C [7]: 107% | viability, T/C [8]: 92.5% | viability, T/C [9]: 111% | viability, T/C [10]: 80.5% | viability, T/C [11]: 102% | viability, T/C [12]: 92% | viability, T/C [13]: 107% | viability, T/C [14]: 94.7% | viability, T/C [15]: 103% | viability, T/C [16]: 92.6% | viability, T/C [17]: 95.1% | viability, T/C [18]: 90.9% | viability, T/C [19]: 91% | viability, T/C [20]: 114% | viability, T/C [21]: 115% | viability, T/C [22]: 115% | viability, T/C [23]: 93.5% | viability, T/C [24]: 91.5% | viability, T/C [25]: 93.1% | viability, T/C [26]: 112% | viability, T/C [27]: 113% | viability, T/C [28]: 107% | viability, T/C [29]: 97.8% | viability, T/C [30]: 87.3% | viability, T/C [31]: 104% | viability, T/C [32]: 104% | viability, T/C [33]: 113% | viability, T/C [34]: 88.8% | viability, T/C [35]: 88.2% | viability, T/C [36]: 98% | viability, T/C [37]: 91.8% | viability, T/C [38]: 97.1% | viability, T/C [39]: 100% | viability, T/C [40]: 89.8% | viability, T/C [41]: 95.2% | viability, T/C [42]: 85.5%

CC(C)n1nc(-c2ccc3oc(N)nc3c2)c2c(N)ncnc21
viability, T/C (compound 0.0316 µM): 52.2% [middle of 4 runs] | viability, T/C (compound 0.1 µM): 18.5% [middle of 4 runs] | IC50 (curve of compound): 33.4 nM [middle of 4 runs]

CC(Nc1ccc2c(c1)OCCn1cc(N3C(=O)OCC3C(F)F)nc1-2)C(N)=O (configuration not stated)
viability, T/C (compound 0.316 µM): 101% (2×) and 121% and 106% | viability, T/C (compound 10 µM): 87.9% [middle of 4 runs] | IC50 (curve of compound): > 10 µM

NC1c2ccccc2OC12CCN(c1cnc3c(N4CCCc5ncccc54)n[nH]c3n1)CC2 (configuration not stated) + C#Cc1c(F)ccc2cc(O)cc(-c3ncc4c(N5CC6CCC(C5)N6)nc(OCC56CCCN5CC(F)C6)nc4c3F)c12
IC50 [1]: > 10 µM | IC50 [2]: > 10 µM | IC50 [3]: > 10 µM | IC50 [4]: > 10 µM | IC50 [5]: > 10 µM | IC50 [6]: > 10 µM | viability, T/C [7]: 118% | viability, T/C [8]: 88.8% | viability, T/C [9]: 98.4% | viability, T/C [10]: 97.3% | viability, T/C [11]: 108% | viability, T/C [12]: 92.7% | viability, T/C [13]: 106% | viability, T/C [14]: 98.1% | viability, T/C [15]: 95.5% | viability, T/C [16]: 108% | viability, T/C [17]: 99.7% | viability, T/C [18]: 109% | viability, T/C [19]: 100% | viability, T/C [20]: 105% | viability, T/C [21]: 95.5% | viability, T/C [22]: 113% | viability, T/C [23]: 108% | viability, T/C [24]: 113% | viability, T/C [25]: 100% | viability, T/C [26]: 103% | viability, T/C [27]: 118% | viability, T/C [28]: 109% | viability, T/C [29]: 95.8% | viability, T/C [30]: 118% | viability, T/C [31]: 101% | viability, T/C [32]: 92.2% | viability, T/C [33]: 109% | viability, T/C [34]: 101% | viability, T/C [35]: 91.1% | viability, T/C [36]: 99.7% | viability, T/C [37]: 105% | viability, T/C [38]: 90.1% | viability, T/C [39]: 120% | viability, T/C [40]: 98.8% | viability, T/C [41]: 108% | viability, T/C [42]: 115%
